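Exposure lasted 48 hours, with cells grown in 96-well plates and compounds tested at five concentrations. GI50 = concentration required for 50% inhibition of growth.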 Activity calls are given as the source filed them. No stated cut-off is given here; in the data, active = GI50 up to about 1.1 µM and inactive = higher.
Key:
Assay in all cases: NCI anticancer screen, dose series, 48 h
[1] = tested on: EKVX
[2] = tested on: SN12C
[3] = tested on: SW-620
[4] = tested on: UACC-257
[5] = tested on: SF-295
[6] = tested on: HCT-116
[7] = tested on: OVCAR-4
[8] = tested on: OVCAR-3
[9] = tested on: CCRF-CEM
[10] = tested on: TK-10
[11] = tested on: IGROV-1
[12] = tested on: HT-29
[13] = tested on: OVCAR-8
[14] = tested on: SR
[15] = tested on: OVCAR-5
[16] = tested on: U-251
[17] = tested on: RPMI-8226

With C=C(C)CC(C)(c1cc2ccccc2n1C)N1CCOCC1 (configuration not stated) the GI50 [1] was 36.4 µM (inactive), the GI50 [2] was 93.5 µM (inactive) and the GI50 [3] was > 100 µM (inactive). For the same compound, the GI50 [4] was 95.1 µM (inactive), the GI50 [5] was > 100 µM (inactive) and the GI50 [6] was 60.1 µM (inactive). For the same compound, the GI50 [7] was > 100 µM (inactive), the GI50 [8] was 66.5 µM (inactive) and the GI50 [9] was 44.5 µM (inactive). For the same compound, the GI50 [10] was > 100 µM (inactive), the GI50 [11] was 75.7 µM (inactive) and the GI50 [12] was > 100 µM (inactive). For the same compound, the GI50 [13] was 67.1 µM (inactive) and the GI50 [14] was 69 µM (inactive).
CC(C)(C)c1cc(C(O)(C(F)(F)F)C(F)(F)F)c2c(c1)C(C(F)(F)F)(C(F)(F)F)OC(C)(C(C)(C)C)N2 (configuration not stated) was tested, and the GI50 [1] was 3.94 µM (inactive), the GI50 [2] was 4.45 µM (inactive) and the GI50 [3] was 3.68 µM (inactive). For the same compound, the GI50 [4] was 5.19 µM (inactive), the GI50 [5] was 4.73 µM (inactive) and the GI50 [6] was 3.42 µM (inactive). For the same compound, the GI50 [7] was 4.62 µM (inactive), the GI50 [8] was 0.776 µM (active) and the GI50 [10] was 3.27 µM (inactive). The GI50 [11] was 4.78 µM (inactive), the GI50 [15] was 7.13 µM (inactive) and the GI50 [12] was 3.4 µM (inactive). The GI50 [13] was 4.9 µM (inactive), the GI50 [16] was 2.69 µM (inactive) and the GI50 [17] was 2.57 µM (inactive). The GI50 [14] was 2.82 µM (inactive).
c1cnc2c(c1)-n1cccc1C1(CCOCC1)NN2 was tested, and the GI50 [1] was > 100 µM (inactive), the GI50 [2] was > 100 µM (inactive) and the GI50 [3] was > 100 µM (inactive). The GI50 [5] was > 100 µM (inactive), the GI50 [6] was > 100 µM (inactive) and the GI50 [7] was > 100 µM (inactive). For the same compound, the GI50 [8] was > 100 µM (inactive), the GI50 [9] was > 100 µM (inactive) and the GI50 [10] was > 100 µM (inactive). For the same compound, the GI50 [11] was > 100 µM (inactive), the GI50 [12] was > 100 µM (inactive) and the GI50 [13] was > 100 µM (inactive). For the same compound, the GI50 [16] was > 100 µM (inactive), the GI50 [17] was > 100 µM (inactive) and the GI50 [14] was > 100 µM (inactive).
For O=C1CCCCCCC2=C1C(Sc1ccccc1)CC2 (configuration not stated), the GI50 [1] was 20.5 µM (inactive), the GI50 [2] was 19.9 µM (inactive) and the GI50 [3] was 36.3 µM (inactive). For the same compound, the GI50 [4] was 43.2 µM (inactive), the GI50 [5] was 45 µM (inactive) and the GI50 [6] was 21.7 µM (inactive). The GI50 [7] was 63.2 µM (inactive), the GI50 [9] was 9.08 µM (inactive) and the GI50 [10] was 36.6 µM (inactive). For the same compound, the GI50 [12] was 34 µM (inactive), the GI50 [13] was 23 µM (inactive) and the GI50 [16] was 37.1 µM (inactive). The GI50 [17] was 30.3 µM (inactive) and the GI50 [14] was 18.2 µM (inactive).
In the case of Fc1ccc2c(c1)cc1ccc3cccc4ccc2c1c34, the GI50 [1] is reported as 5.02 µM (inactive), the GI50 [2] is reported as > 100 µM (inactive) and the GI50 [3] is reported as > 100 µM (inactive). The GI50 [4] was > 100 µM (inactive), the GI50 [5] was > 100 µM (inactive) and the GI50 [6] was > 100 µM (inactive). For the same compound, the GI50 [7] was > 100 µM (inactive), the GI50 [8] was > 100 µM (inactive) and the GI50 [9] was > 100 µM (inactive). For the same compound, the GI50 [10] was > 100 µM (inactive), the GI50 [11] was > 100 µM (inactive) and the GI50 [15] was > 100 µM (inactive). For the same compound, the GI50 [12] was > 100 µM (inactive), the GI50 [13] was > 100 µM (inactive) and the GI50 [16] was > 100 µM (inactive). The GI50 [14] was > 100 µM (inactive).
With CN1C(=O)CC2(C)c3cc(O)cc(Br)c3N(C)C12 (configuration not stated) the GI50 [1] was > 100 µM (inactive), the GI50 [2] was > 100 µM (inactive) and the GI50 [3] was > 100 µM (inactive). For the same compound, the GI50 [4] was > 100 µM (inactive), the GI50 [5] was > 100 µM (inactive) and the GI50 [6] was > 100 µM (inactive). The GI50 [7] was > 10 µM (inactive), the GI50 [8] was > 100 µM (inactive) and the GI50 [9] was > 100 µM (inactive). For the same compound, the GI50 [10] was > 100 µM (inactive), the GI50 [11] was > 100 µM (inactive) and the GI50 [15] was > 100 µM (inactive). The GI50 [12] was > 100 µM (inactive), the GI50 [13] was > 100 µM (inactive) and the GI50 [16] was > 100 µM (inactive).
With CC(=O)Nc1ccccc1S(=O)(=O)c1ccccc1 the GI50 [1] was > 100 µM (inactive), the GI50 [2] was > 100 µM (inactive) and the GI50 [3] was > 100 µM (inactive). For the same compound, the GI50 [4] was > 100 µM (inactive), the GI50 [5] was > 100 µM (inactive) and the GI50 [6] was > 100 µM (inactive). For the same compound, the GI50 [7] was > 100 µM (inactive), the GI50 [8] was > 100 µM (inactive) and the GI50 [9] was > 100 µM (inactive). The GI50 [10] was > 100 µM (inactive), the GI50 [11] was > 100 µM (inactive) and the GI50 [15] was 0.0409 µM (active). The GI50 [12] was > 100 µM (inactive), the GI50 [13] was > 100 µM (inactive) and the GI50 [16] was > 100 µM (inactive). For the same compound, the GI50 [17] was > 100 µM (inactive).
In the case of CCCCCCCCCCCCC(Br)C(=O)SCCNC(=O)CCNC(=O)[C@@H](O)C(C)(C)COP(=O)(O)OP(=O)(O)OCC1OC(n2cnc3c(N)ncnc32)C(O)C1OP(=O)(O)O (some centres not stated), the GI50 [1] is reported as > 56.5 µM (inactive), the GI50 [2] is reported as > 56.5 µM (inactive) and the GI50 [3] is reported as > 56.5 µM (inactive). For the same compound, the GI50 [4] was 14.6 µM (inactive), the GI50 [5] was > 56.5 µM (inactive) and the GI50 [6] was 22 µM (inactive). For the same compound, the GI50 [7] was > 56.5 µM (inactive), the GI50 [8] was > 56.5 µM (inactive) and the GI50 [9] was 35.4 µM (inactive). For the same compound, the GI50 [10] was > 56.5 µM (inactive), the GI50 [11] was > 56.5 µM (inactive) and the GI50 [15] was > 56.5 µM (inactive). The GI50 [12] was > 56.5 µM (inactive), the GI50 [13] was 54.3 µM (inactive) and the GI50 [16] was 33.7 µM (inactive).
C/C(=C\C(C[C@](C)(O)C(O)CCC#C[Si](C)(C)C)S(=O)(=O)c1ccccc1)CC/C=C/CO[Si](C)(C)C(C)(C)C (some centres not stated) was tested, and the GI50 [1] was 19.7 µM (inactive), the GI50 [2] was 6.24 µM (inactive) and the GI50 [3] was 17.3 µM (inactive). For the same compound, the GI50 [4] was 17.3 µM (inactive), the GI50 [5] was 16.5 µM (inactive) and the GI50 [6] was 13.4 µM (inactive). For the same compound, the GI50 [7] was 13.8 µM (inactive), the GI50 [8] was 16 µM (inactive) and the GI50 [9] was 10.6 µM (inactive). The GI50 [10] was 22 µM (inactive), the GI50 [11] was 20.8 µM (inactive) and the GI50 [15] was 13.7 µM (inactive). The GI50 [12] was 3.57 µM (inactive), the GI50 [13] was 17.2 µM (inactive) and the GI50 [16] was 13.4 µM (inactive). For the same compound, the GI50 [17] was 10.1 µM (inactive).

Source: ChEMBL document CHEMBL1201862, “PubChem BioAssay data set” (2004)
